Legend:
ovariectomized ICR mice = assay: In vivo osteoporosis assay in ovariectomized ICR mice (DEXA, micro-CT of spine L3-L6); details: for BMD (g/cm^2) Avg. ± SD / BMD Change (%) / Trabeculae volume Change (%) / Trabeculae volume(mm^2) Avg. ± SD: four weeks; for BMD (g/cm^2) Avg. ± SD: spine L3-L6, DEXA; for BMD Change (%) / Trabeculae volume Change (%): Sham = 0.0
Experimental: Experimental animals were female ICR mice having body weights of 24-28 g which were about 7 weeks old. In each cage, measuring 40×25×17 cm, 2-3 mice were reared at 22° C., RH 50%.
Ovariectomy is known as one of the most widely used techniques for inducing osteoporosis. As in postmenopause case, the ovariectomy-operation induce estrogen insufficient, result in decrease of osteogenesis and increase of bone resorption, lead to osteoporosis. Anaesthetized 7-week-old female ICR mice underwent ovariectomies and, immediately after the removal of both ovaries, they were administered with test compounds to determine the preventive and therapeutic effects thereof on osteoporosis.
1) Preparation of test material: Predetermined amounts of Derivative (1) were suspended in 0.5% CMC to prepare test materials to be administered. As for the control drug alendronate, 0.17% citric acid was added thereto as a pharmacopoeia to aid in the uptake of the drug.
2) Administration period: four weeks
3) Administration route and method: test materials were administered in a volume of 10 ml/kg of body weight, measured on the administration day, into seven groups: (1) intact control (ICR mice bred with typical diet, control); (2) ovariectomy control (the abdomen opened and closed without removal of the ovary, Sham); (3) ovariectomy group (ovaries removed, OVX); (4) alendronate-treated group (a dose of 5 mg/kg/day); (5) Derivative (1) 30 mg/kg/day treated group (OVX+Derivative (1) 30 mpk); (6) Derivative (1) 90 mg/kg/day treated group (OVX+Derivative (1) 90 mpk); and (7) Derivative (1) […] treated group (OVX+Derivative (1) 30 mpkW). Groups (1)˜(6) were orally treated five day a week for four weeks while group (7) was treated once a week for four weeks.
After administration for four weeks, the spine (L3-L6) was analyzed for bone mineral density (BMD) through dual-energy X-ray absorptiometry (DEXA) using a Lunar Pixi #5 instrument. Micro-computed tomography (Micro-CT) was performed to determine the effects of the test materials on bone mass and bone strength and on the tertiary bone mass of the spine (L3-L6).

[1] = system: Wnt/β-catenin signaling (β-catenin activity) in HEK293 cell line; assay: Cell-based Wnt agonist screening, TCF luciferase reporter, HEK293 (TCF-FL); set-up: species or system human; details: Homo sapiens, HEK293, 24 h, % of LiCl (20 mM), 24 h, Conc. 60 μM, read-out: Max. Activity (%)
Method in brief: (§1)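 HEK293 and SW480 lines stably carried a 5X TCF firefly luciferase reporter under G418 selection. Cells (8,000–15,000/well, RPMI 1640 with 5% FBS) were grown 24 h, then treated with compound for 24 h. Luciferase activity was expressed as percent of the 20 mM LiCl positive control.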

[2] = system: Wnt/β-catenin signaling (β-catenin activity) in SW480 cell line; assay: Cell-based Wnt agonist screening, TCF luciferase reporter, SW480 (TCF-FL); set-up: species or system human; details: Homo sapiens, % of LiCl (20 mM), 24 h, Con. 120 μM, read-out: Max. Activity (%)
Method in brief: as §1

[3] = Group 5 (OVX + D30): 30 mg/kg/day, oral
[4] = Group 6 (OVX + D90): 90 mg/kg/day, oral
[5] = Group 7 (OVX + W30): 90 mg/kg/week (30 mpkW), once a week
[6] = Group 4 (OVX + AD): alendronate 5 mg/kg/day, oral

O=C(NCCCn1ccnc1)c1cc(-c2ccco2)on1 [Derivative (1), 5-furan-2-yl-isoxazole-3-carboxylic acid (3-imidazol-1-yl-propyl)-amide]
BMD (g/cm^2) Avg. ± SD (ovariectomized ICR mice; Group 5 (OVX + D30): 30 mg/kg/day, oral, five day a week): 0.061 ± 0.007 g/cm^2
BMD Change (%) (ovariectomized ICR mice; [3]): −11.6%
Trabeculae volume Change (%) (ovariectomized ICR mice; [3]): 4.8%
Trabeculae volume(mm^2) Avg. ± SD (ovariectomized ICR mice; Group 5 (OVX + D30): 30 mg/kg/day, oral, spine L3-L6, micro-CT): 21.7 ± 2.43 mm^2
BMD (g/cm^2) Avg. ± SD (ovariectomized ICR mice; Group 6 (OVX + D90): 90 mg/kg/day, oral, five day a week): 0.063 ± 0.005 g/cm^2
BMD Change (%) (ovariectomized ICR mice; [4]): −8.7%
Trabeculae volume Change (%) (ovariectomized ICR mice; [4]): 44.4%
Trabeculae volume(mm^2) Avg. ± SD (ovariectomized ICR mice; Group 6 (OVX + D90): 90 mg/kg/day, oral, spine L3-L6, micro-CT): 29.9 ± 0.83 mm^2
BMD Change (%) (ovariectomized ICR mice; [5]): −15.9%
Trabeculae volume Change (%) (ovariectomized ICR mice; [5]): 26.1%
Trabeculae volume(mm^2) Avg. ± SD (ovariectomized ICR mice; Group 7 (OVX + W30): 90 mg/kg/week (30 mpkW), once a week, micro-CT): 26.1 ± 1.87 mm^2
BMD (g/cm^2) Avg. ± SD (ovariectomized ICR mice; [5]): 0.058 ± 0.006 g/cm^2
therapeutic effect on bone mass compared with alendronate (ovariectomized ICR mice; OVX mice, four weeks administration): exceed that of alendronate
effect on bone mineral density (BMD) versus OVX group (ovariectomized ICR mice; OVX mice, four weeks administration, DEXA): decrease in bone mineral density to lesser extents compared to the OVX group
effect on bone mass (BV/TV) (ovariectomized ICR mice; OVX mice, four weeks administration, micro-CT): restrain the decrease of bone mass, but also to increase the bone density to a higher level than before ovariectomy
Emax at 60 µM [1]: 70%
Emax at 120 µM [2]: 957%

NCCCC(O)(P(=O)(O)O)P(=O)(O)O [Alendronate, alendronate, reference compound]
BMD (g/cm^2) Avg. ± SD (ovariectomized ICR mice; Group 4 (OVX + AD): alendronate 5 mg/kg/day, oral, five day a week): 0.066 ± 0.012 g/cm^2
BMD Change (%) (ovariectomized ICR mice; [6]): −4.3%
Trabeculae volume Change (%) (ovariectomized ICR mice; [6]): −25.1%
Trabeculae volume(mm^2) Avg. ± SD (ovariectomized ICR mice; Group 4 (OVX + AD): alendronate 5 mg/kg/day, oral, spine L3-L6, micro-CT): 15.5 ± 3.27 mm^2

— US7915297B2, “Isoxazole derivatives and use thereof” (SK Holdings Co., Ltd., priority 2005, dated 2011)
